From patent US4220644A, “7-Acylamino-3-(substituted tetrazolyl thiomethyl) cephalosporins” (SmithKline Corporation, priority 1976, dated 1980)
Converted amounts (≈) assume the structure as drawn. Where two headings read alike, the source gives them in different places.

How the values were obtained:
[1] = system: S. aureus HH 127; assay: MIC in vitro (Table 1), S. aureus HH 127; assay type: cell-based; conditions: Staphylococcus aureus
Excerpt: (§1) Compound names corresponding to numbers are given in the experimental section. For comparative purposes, data for cephamandole, which is 7-mandelamido-3-(1-methyltetrazol-5-ylthiomethyl)-3-cephem-4-carboxylic acid, is also given in Tables 1 and 2.

[2] = system: S. aureus SK 23390; assay: MIC in vitro (Table 1), S. aureus SK 23390; assay type: cell-based; conditions: Staphylococcus aureus
Excerpt: as §1

[3] = system: Strep. Faecalis HH 34358; assay: MIC in vitro (Table 1), Strep. Faecalis HH 34358; assay type: cell-based
Excerpt: as §1

[4] = system: E. coli SK 12140; assay: MIC in vitro (Table 1), E. coli SK 12140; assay type: cell-based; conditions: Escherichia coli, SK12140, in vitro
Excerpt: as §1

[5] = system: E. coli HH 33779; assay: MIC in vitro (Table 1), E. coli HH 33779; assay type: cell-based; conditions: E. coli HH 33779
Excerpt: as §1

[6] = system: Kleb. pneumo. SK 4200; assay: MIC in vitro (Table 1), Kleb. pneumo. SK 4200; assay type: cell-based
Excerpt: as §1

[7] = system: Kleb. pneumo. SK 1200; assay: MIC in vitro (Table 1), Kleb. pneumo. SK 1200; assay type: cell-based
Excerpt: as §1

[8] = system: Pseudo. sp. HH 63; assay: MIC in vitro (Table 1), Pseudo. sp. HH 63; assay type: cell-based; conditions: in vitro, Pseudo. sp. HH 63; read-out: MIC
Excerpt: as §1, with “The compounds of Formula I have antibacterial activity against both Gram-positive and Gram-negative organisms. […] Compound” for “Compound”

[9] = system: Salmonella ATCC 12176; assay: MIC in vitro (Table 1), Salmonella ATCC 12176; assay type: cell-based
Excerpt: as §1, with “The compounds of Formula I have antibacterial activity against both Gram-positive and Gram-negative organisms. […] Compound” for “Compound”

[10] = system: Shigella HH 117; assay: MIC in vitro (Table 1), Shigella HH 117; assay type: cell-based
Excerpt: as §1, with “The compounds of Formula I have antibacterial activity against both Gram-positive and Gram-negative organisms. […] Compound” for “Compound”

[11] = system: Entero. aerog. ATCC 13048; assay: MIC in vitro (Table 1), Entero. aerog. ATCC 13048; assay type: cell-based
Excerpt: as §1

[12] = system: Serra. Marc. ATCC 13880; assay: MIC in vitro (Table 1), Serra. Marc. ATCC 13880; assay type: cell-based
Excerpt: as §1

[13] = system: Entero. cloacae HH 31254; assay: MIC in vitro (Table 1), Entero. cloacae HH 31254; assay type: cell-based; conditions: Enterobacter cloacae
Excerpt: as §1

[14] = system: Proteus morgani 179; assay: MIC in vitro (Table 1), Proteus morgani 179; assay type: cell-based
Excerpt: as §1

[15] = system: E. coli 12140; assay: In vivo mouse protection (Table 2), E. coli 12140
Excerpt: as §1

[16] = system: Kleb. pneumo. 4200; assay: In vivo mouse protection (Table 2), Kleb. pneumo. 4200
Excerpt: as §1

[17] = HH127, in vitro, S. aureus HH 127, read-out: MIC
[18] = Enterococcus faecalis, in vitro, Strep. Faecalis HH 34358, read-out: MIC
[19] = Escherichia coli, HH33779, in vitro, read-out: MIC
[20] = Salmonella, ATCC12176, in vitro, read-out: MIC
[21] = Shigella, HH117, in vitro, read-out: MIC
[22] = in vitro, Serra. Marc. ATCC 13880, read-out: MIC
[23] = Escherichia coli, 12140, po, E. coli 12140, p.o.
[24] = Escherichia coli, 12140, sc, E. coli 12140, s.c.
[25] = in vitro, Strep. Faecalis HH 34358
[26] = in vitro, Kleb. pneumo. SK 4200, read-out: MIC
[27] = SK23390, in vitro, S. aureus SK 23390, read-out: MIC
[28] = in vitro, Entero. aerog. ATCC 13048, read-out: MIC
[29] = HH31254, in vitro, Entero. cloacae HH 31254, read-out: MIC

CN(C)C(=O)Cn1nnnc1SCC1=C(C(=O)O)N2C(=O)C(NC(=O)[C@H](N)c3ccc(O)cc3)C2SC1 (stereo partly drawn) [IX, 7-(D-α-Amino-4-hydroxyphenylacetamido)-3-(1-N,N-dimethylcarbamoylmethyltetrazol-5-ylthiomethyl)-3-cephem-4-carboxylic acid]
MIC [1, 17]: 12.5 µg/mL (≈ 22.8 µM)
MIC ([2]; SK23390): 6.3 µg/mL (≈ 11.5 µM)
MIC [3, 18]: 25 µg/mL (≈ 45.6 µM)
MIC ([4]; read-out: MIC): 12.5 µg/mL (≈ 22.8 µM)
MIC [5, 19]: 12.5 µg/mL (≈ 22.8 µM)
MIC [6]: 6.3 µg/mL (≈ 11.5 µM)
MIC [7]: 6.3 µg/mL (≈ 11.5 µM)
MIC [8]: > 200 µg/mL
MIC [9, 20]: 3.1 µg/mL (≈ 5.65 µM)
MIC [10, 21]: 6.3 µg/mL (≈ 11.5 µM)
MIC [11]: 12.5 µg/mL (≈ 22.8 µM)
MIC [12, 22]: 200 µg/mL (≈ 365 µM)
MIC ([13]; HH31254): 3.1 µg/mL (≈ 5.65 µM)
MIC ([14]; read-out: MIC): 100 µg/mL (≈ 182 µM)
ED50 [15, 23]: 28.5 mg/kg
ED50 [15, 24]: 1.56 mg/kg
ED50 ([16]; po, Kleb. pneumo. 4200, p.o.): 18 mg/kg
ED50 ([16]; sc, Kleb. pneumo. 4200, s.c.): 3.7 mg/kg

O=C(O)CCn1nnnc1SCC1=C(C(=O)O)N2C(=O)C(NC(=O)[C@H](O)c3ccccc3)[C@H]2SC1 (stereo partly drawn) [VIII, 7-D-Mandelamido-3-[1-(2-carboxyethyl)tetrazol-5-ylthiomethyl]-3-cephem-4-carboxylic acid]
MIC ([1]; HH127): 3.1 µg/mL (≈ 5.96 µM)
MIC [1, 17]: 1.6 µg/mL (≈ 3.07 µM)
MIC [3, 18]: 50 µg/mL (≈ 96.1 µM)
MIC [3, 25]: 100 µg/mL (≈ 192 µM)
MIC [4]: 0.4 µg/mL (≈ 0.768 µM)
MIC ([4]; read-out: MIC): 1.6 µg/mL (≈ 3.07 µM)
MIC ([6]; in vitro, Kleb. pneumo. SK 4200): 1.6 µg/mL (≈ 3.07 µM)
MIC [6, 26]: 0.8 µg/mL (≈ 1.54 µM)
MIC [7]: 0.8 µg/mL (≈ 1.54 µM)
MIC ([7]; read-out: MIC): 1.6 µg/mL (≈ 3.07 µM)
MIC [8]: > 200 µg/mL
MIC [9, 20]: 0.8 µg/mL (≈ 1.54 µM)
MIC ([9]; in vitro): 0.4 µg/mL (≈ 0.768 µM)
MIC [10, 21]: 0.8 µg/mL (≈ 1.54 µM)
MIC [11]: 3.1 µg/mL (≈ 5.96 µM)
MIC [12]: 12.5 µg/mL (≈ 24 µM)
MIC ([12]; in vitro, Serra. Marc. ATCC 13880): 100 µg/mL (≈ 192 µM)
MIC [12, 22]: 50 µg/mL (≈ 96.1 µM)
MIC ([13]; HH31254): 3.1 µg/mL (≈ 5.96 µM)
MIC ([14]; read-out: MIC): 6.3 µg/mL (≈ 12.1 µM)
ED50 [15, 23]: 50 mg/kg
ED50 [15, 24]: 0.86 mg/kg
ED50 ([16]; po, Kleb. pneumo. 4200, p.o.): 25 mg/kg
ED50 ([16]; sc, Kleb. pneumo. 4200, s.c.): 0.46 mg/kg

NC(=O)Cn1nnnc1SCC1=C(C(=O)O)N2C(=O)C(NC(=O)[C@H](N)c3ccc(O)cc3)[C@H]2SC1 (stereo partly drawn) [VI, 7-(D-α-Amino-4-hydroxyphenylacetamido) -3-(1-carbamoylmethyltetrazol-5-ylthiomethyl) -3-cephem-4-carboxylic acid]
MIC [1, 17]: 6.3 µg/mL (≈ 12.1 µM)
MIC [2, 27]: 6.3 µg/mL (≈ 12.1 µM)
MIC [3, 18]: 50 µg/mL (≈ 96.1 µM)
MIC ([4]; read-out: MIC): 6.3 µg/mL (≈ 12.1 µM)
MIC [5, 19]: 6.3 µg/mL (≈ 12.1 µM)
MIC [6, 26]: 12.5 µg/mL (≈ 24 µM)
MIC ([7]; read-out: MIC): 6.3 µg/mL (≈ 12.1 µM)
MIC [8]: > 200 µg/mL
MIC [9, 20]: 1.6 µg/mL (≈ 3.07 µM)
MIC [10, 21]: 3.1 µg/mL (≈ 5.96 µM)
MIC [11, 28]: 6.3 µg/mL (≈ 12.1 µM)
MIC [12, 22]: 100 µg/mL (≈ 192 µM)
MIC ([13]; HH31254): 3.1 µg/mL (≈ 5.96 µM)
MIC ([14]; read-out: MIC): 50 µg/mL (≈ 96.1 µM)
ED50 ([16]; po, Kleb. pneumo. 4200, p.o.): 4 mg/kg
ED50 ([16]; sc, Kleb. pneumo. 4200, s.c.): 0.92 mg/kg

NC(=O)CCCCCn1nnnc1SCC1=C(C(=O)O)N2C(=O)C(NC(=O)[C@H](O)c3ccccc3)[C@H]2SC1 (stereo partly drawn) [XIV, 7-D-Mandelamido-3-[1-(5-carbamoylpentyl)tetrazol-5-ylthiomethyl]-3-cephem-4-carboxylic acid]
MIC [1, 17]: 1.6 µg/mL (≈ 2.85 µM)
MIC ([2]; SK23390): 0.4 µg/mL (≈ 0.712 µM)
MIC ([3]; Enterococcus faecalis): 12.5 µg/mL (≈ 22.3 µM)
MIC ([4]; read-out: MIC): 3.1 µg/mL (≈ 5.52 µM)
MIC [5, 19]: 3.1 µg/mL (≈ 5.52 µM)
MIC [6, 26]: 1.6 µg/mL (≈ 2.85 µM)
MIC ([7]; read-out: MIC): 3.1 µg/mL (≈ 5.52 µM)
MIC [8]: > 200 µg/mL
MIC [9, 20]: 3.1 µg/mL (≈ 5.52 µM)
MIC [10, 21]: 0.8 µg/mL (≈ 1.42 µM)
MIC [11, 28]: 6.3 µg/mL (≈ 11.2 µM)
MIC [12]: 25 µg/mL (≈ 44.5 µM)
MIC [13, 29]: 1.6 µg/mL (≈ 2.85 µM)
ED50 [15, 24]: 1.1 mg/kg
ED50 ([16]; sc, Kleb. pneumo. 4200, s.c.): 1.1 mg/kg

NC(=O)CCn1nnnc1SCC1=C(C(=O)O)N2C(=O)C(NC(=O)[C@H](O)c3ccccc3)[C@H]2SC1 (stereo partly drawn) [VII, 7-D-Mandelamido-3-[1-(2-carbamoylethyl)tetrazol-5-ylthiomethyl]-3-cephem-4-carboxylic acid]
MIC ([2]; SK23390): 0.4 µg/mL (≈ 0.77 µM)
MIC [2, 27]: 0.8 µg/mL (≈ 1.54 µM)
MIC [3, 18]: 12.5 µg/mL (≈ 24.1 µM)
MIC [3, 25]: 25 µg/mL (≈ 48.1 µM)
MIC [4]: 0.4 µg/mL (≈ 0.77 µM)
MIC ([4]; read-out: MIC): 0.8 µg/mL (≈ 1.54 µM)
MIC [5, 19]: 1.6 µg/mL (≈ 3.08 µM)
MIC ([5]; in vitro): 3.1 µg/mL (≈ 5.97 µM)
MIC [6]: 0.4 µg/mL (≈ 0.77 µM)
MIC [6, 26]: 0.8 µg/mL (≈ 1.54 µM)
MIC ([7]; read-out: MIC): 0.8 µg/mL (≈ 1.54 µM)
MIC [8]: > 200 µg/mL
MIC [9, 20]: 0.2 µg/mL (≈ 0.385 µM)
MIC [10, 21]: 0.2 µg/mL (≈ 0.385 µM)
MIC ([10]; in vitro): 0.4 µg/mL (≈ 0.77 µM)
MIC [12]: 6.3 µg/mL (≈ 12.1 µM)
MIC [12, 22]: 50 µg/mL (≈ 96.2 µM)
MIC ([13]; HH31254): 0.4 µg/mL (≈ 0.77 µM)
MIC [13, 29]: 1.6 µg/mL (≈ 3.08 µM)
MIC [14]: 0.8 µg/mL (≈ 1.54 µM)
MIC ([14]; read-out: MIC): 1.6 µg/mL (≈ 3.08 µM)
ED50 [15, 23]: 25 mg/kg
ED50 [15, 24]: 0.86 mg/kg
ED50 ([16]; po, Kleb. pneumo. 4200, p.o.): 17 mg/kg
ED50 ([16]; sc, Kleb. pneumo. 4200, s.c.): 0.78 mg/kg
